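Five concentrations, 48 hours, 96-well plates. At the GI50, growth is halved.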 Activity calls are given as the source filed them. No stated cut-off is given here; in the data, active = GI50 up to about 1.1 µM and inactive = higher.
How the values were obtained:
Assay in all cases: NCI anticancer screen, dose series, 48 h
HCC 2998 = test system: HCC 2998
OVCAR-8 = test system: OVCAR-8
HOP-62 = test system: HOP-62
NCI-H460 = test system: NCI-H460
HCT-116 = test system: HCT-116
CCRF-CEM = test system: CCRF-CEM
EKVX = test system: EKVX
NCI-H226 = test system: NCI-H226
A549 = test system: A549
HT-29 = test system: HT-29
COLO 205 = test system: COLO 205
MOLT-4 = test system: MOLT-4
SNB-75 = test system: SNB-75
786-0 = test system: 786-0
NCI-H23 = test system: NCI-H23
MCF7 = test system: MCF7
SK-OV-3 = test system: SK-OV-3
SK-MEL-28 = test system: SK-MEL-28
RPMI-8226 = test system: RPMI-8226
HOP-92 = test system: HOP-92

Measured: GI50

Cc1ccc(/C(O)=C/c2nc3ccccc3oc2=O)cc1
inactive: HCC 2998 > 100 µM | OVCAR-8 38.4 µM | HOP-62 > 100 µM | NCI-H460 > 100 µM | HCT-116 75.3 µM | CCRF-CEM 12.8 µM | EKVX > 100 µM | NCI-H226 > 100 µM | A549 > 100 µM | HT-29 > 100 µM | COLO 205 87.7 µM | MOLT-4 45.4 µM | SNB-75 > 100 µM | 786-0 85.3 µM | NCI-H23 72.1 µM | MCF7 47.6 µM

C=CCOCn1cnc2c(N)ncnc21
inactive: HCC 2998 > 100 µM | OVCAR-8 > 100 µM | HOP-62 > 100 µM | NCI-H460 > 100 µM | HCT-116 > 100 µM | CCRF-CEM > 100 µM | SK-OV-3 > 100 µM | SK-MEL-28 > 100 µM | EKVX > 100 µM | NCI-H226 > 100 µM | A549 > 100 µM | HT-29 > 100 µM | COLO 205 > 100 µM | RPMI-8226 > 100 µM | MOLT-4 > 100 µM | SNB-75 > 100 µM | 786-0 > 100 µM | NCI-H23 > 100 µM | MCF7 > 100 µM

O=C1N/C(=N/N=C/c2ccccc2)N/C1=C\c1cccs1
inactive: OVCAR-8 13 µM | HOP-62 18.3 µM | NCI-H460 31.8 µM | HCT-116 17.3 µM | CCRF-CEM 13.3 µM | SK-OV-3 18.6 µM | SK-MEL-28 15.8 µM | EKVX 21.5 µM | NCI-H226 10.6 µM | A549 25.6 µM | HT-29 19.1 µM | COLO 205 8.13 µM | RPMI-8226 16.8 µM | MOLT-4 27.5 µM | SNB-75 22 µM | 786-0 18.5 µM | HOP-92 15.8 µM | NCI-H23 15.9 µM | MCF7 9.84 µM

COC(=O)C1=C2SCc3ccc(cc3)CSC3=C(C(=O)OC)SC(=C(S2)S1)S3
inactive: HCC 2998 > 100 µM | HOP-62 > 100 µM | NCI-H460 > 100 µM | HCT-116 > 100 µM | SK-OV-3 > 100 µM | SK-MEL-28 > 100 µM | NCI-H226 > 100 µM | A549 > 100 µM | COLO 205 > 100 µM | RPMI-8226 33 µM | MOLT-4 > 100 µM | SNB-75 > 100 µM | 786-0 96.6 µM | MCF7 > 100 µM
